Data on three compounds can be found in publication PMC2359919, “Molecular targeting of retinoic acid metabolism in neuroblastoma: the role of the CYP26 inhibitor R116010 in vitro and in vivo” (British Journal of Cancer, 2007).

SMILES strings stand for the structures.

The test system of series [1] is CYP26A1. In words: CYP26A1 expression in SH-SY5Y xenograft tumours. The series is classed as in vivo, CD-1 nude mice. As to the method: All in vivo experiments were approved by the relevant institutional animal welfare committees, and performed according to national law. Female athymic nude mice (CD-1 nu/nu, Charles River) used for antitumour studies were maintained and handled in isolators, under specific pathogen-free conditions, at 24°C with a 12 h light, 12 h dark cycle. Tumours were generated by implantation of SH-SY5Y cells subcutaneously (s.c.) into one flank of CD-1 nude mice (1 × 10^7 cells per animal).
Treatments began when the tumours were between 7 and 10 mm in length and breadth. Retinoids and R116010 were initially dissolved in DMSO before 10- or 20-fold dilutions in PBS, respectively. For pharmacokinetic studies, the animals were dosed with ATRA or 13cisRA (each 100 mg kg^−1) orally for 0.5, 2 and 6 h. […]
(§1) RNA was reverse-transcribed using Promega's Reverse Transcription System according to the manufacturer's instructions, using random hexamer primers. […] As internal standard, β-actin was measured simultaneously using the endogenous control assay provided by Applied Biosystems. […] Standard curves were generated from serial dilutions of cDNA prepared from cells treated with ATRA (1 μM) and the data were analysed using the GeneAmp Sequence Detection System software. CYP26C1 expression was analysed as described previously ([Taimi et al, 2004]).

The subject of series [2] is SH-SY5Y, NGP, SH-EP and GIMEN cells. On the set-up: method as in Armstrong et al, 2005b. The settings on record: SH-SY5Y neuroblastoma cells; ref Armstrong et al, 2005b; cited from earlier work.
Series [3] relates to RARβ. The series is described as follows: RARβ mRNA expression in SH-SY5Y cells, real-time PCR. The settings on record: ATRA 0.01 μM or 13cisRA 0.1 μM with R116010 1 μM vs retinoid alone, 24 h. It is filed as cell-based, human. As to the method: (§2) SH-SY5Y, SH-EP (N- and S-type cells respectively derived from the parental line SK-N-SH), LAN6, IMR-32, NGP and GIMEN neuroblastoma cell lines were cultured routinely in RPMI 1640 medium containing fetal calf serum (10%) and L-glutamine (2 mM). Cells were grown at 37°C in a humidified incubator containing 5% CO2.
(§3) 13-cis-Retinoic acid and ATRA were dissolved in DMSO and diluted in cell culture medium to obtain final concentrations of 0.1–10 μM. The final concentration of DMSO in all cases was <0.2%. All experiments were performed in dim light and tubes containing retinoids were wrapped in aluminium foil.
as §1, with “primers. Real-time PCR was performed on 20 ng cDNA using TaqMan gene expression products for human CYP26A1, CYP26B1, CRABPII, RARβ and MYCN in combination with the TaqMan Universal PCR master mix (Applied Biosystems, Warrington, UK).” for “primers.”
(In general: Quantitative PCR measures a nucleic acid by following its amplification.)

In series [4] the test system is CRABP II. The series is described as follows: CRABP II mRNA expression in SH-SY5Y cells, real-time PCR. It is filed as cell-based, human. The settings on record: ATRA 0.01 μM or 13cisRA 0.1 μM with R116010 1 μM vs retinoid alone, 24 h. As to the method: as §2, §3
as §1, with “primers. Real-time PCR was performed on 20 ng cDNA using TaqMan gene expression products for human CYP26A1, CYP26B1, CRABPII, RARβ and MYCN in combination with the TaqMan Universal PCR master mix (Applied Biosystems, Warrington, UK).” for “primers.”

Series [5] deals with MYCN. The series is described as follows: MYCN mRNA expression in MYCN-amplified NGP cells, real-time PCR. The series is classed as cell-based, human. As to the method: as §2, §3
as §1, with “primers. Real-time PCR was performed on 20 ng cDNA using TaqMan gene expression products for human CYP26A1, CYP26B1, CRABPII, RARβ and MYCN in combination with the TaqMan Universal PCR master mix (Applied Biosystems, Warrington, UK).” for “primers.”

For series [6], the system named is SH-SY5Y, NGP, SH-EP and GIMEN cells. The series is described as follows: Intracellular ATRA and 13cisRA concentrations in neuroblastoma cells, normal-phase HPLC. It is filed as cell-based, human. As to the method: as §2, §3
Cell pellets obtained from retinoid incubations were re-suspended in 2 ml cell culture medium and disrupted by passing the samples several times through a syringe and hypodermic needle (25G × 1 inches, 0.5 mm × 25 mm; Terumo, Somerset, NJ, USA). Tumour and liver tissues were re-suspended in PBS and homogenised (T25 homogeniser, IKA Laboratories, Staufen, Germany). Retinoids were extracted as described previously ([Veal et al, 2002]; [Armstrong et al, 2005b]). Samples were reconstituted in 200 μl mobile phase A (n-hexane:dichloromethane:propan-2-ol, 400 : 1 : 0.27) and analysed by normal-phase HPLC as described previously ([Veal et al, 2002]). For LC/MS analysis, samples were reconstituted in 200 μl mobile phase A (50% acetonitrile, 50% (0.2%) acetic acid, v v^−1).
Quantification of retinoid levels was carried out by HPLC analysis using a Waters 2690 Separations Module and 996 Photodiode array detector (Waters Ltd, Elstree, UK) and Waters Millennium software for data acquisition. Cell volumes were determined as described previously ([Veal et al, 2002]), and intracellular RA concentrations were expressed in micromolars.

In series [7] the test system is CYP26A1. In words: CYP26A1 mRNA expression in neuroblastoma cells, real-time PCR. As to conditions: 0.1 μM retinoid, 24 h; panel of neuroblastoma cell lines; relative to SH-SY5Y cells treated with 0.01 μM ATRA. It is filed as cell-based, human. As to the method: as §2, §3
CYP26 short hairpin RNAs (shRNAs) were generated using the siSTRIKE U6 Hairpin Cloning System (Promega, Southampton, UK). The CYP26A1, B1 and Ctrl siRNA sequences were designed using Promega software. […]
as §1

On the set-up of series [8]: method as in Villablanca et al, 1995. The settings on record: high-dose pulse therapy after autologous bone marrow transplantation or non-myeloablative therapy; ref Villablanca et al, 1995; cited from earlier work.
The subject of series [9] is neuroblastoma cell lines. On the set-up: method as in Villablanca et al, 1995. The settings on record: ref Villablanca et al, 1995; cited from earlier work.

As to `C[C@@H]([C@H](c1ccc(Nc2nc3ccccc3s2)cc1)n1ccnc1)N(C)C` [R116010], the “Increase in CYP26A1 expression in tumours” value in [1] (13cisRA with two doses of R116010 at 2.5 mg kg^−1 vs 13cisRA alone, individual animals, data not shown) was 4- to 20 fold. Moreover, in series [1] (R116010 prior ATRA), the “Effect on CYP26A1 expression in tumours” value is given as “not significantly different”. The “Inhibition of ATRA metabolism” value in [2] is “inhibits ATRA metabolism”. Moreover, the “Effect on RARβ expression, co-incubation with retinoid” value in series [3] is recorded as “significant increases”. Also, the “Effect on CRABP II expression, co-incubation with retinoid” value in series [4] was “significant increases”. For the same compound, the “Effect on downregulation of MYCN expression by ATRA or 13cisRA” value in series [5] (ATRA or 13cisRA 0.1 μM with R116010 1 μM vs retinoid alone) is given as “enhanced”. The “Effect on MYCN expression, R116010 alone” value in [5] (R116010 alone (1 μM)) was “small but significant increase”. For the same compound, the “Effect on ATRA concentrations after incubation with 13cisRA” value in [6] (NGP cells, 10 μM 13cisRA with 1 or 10 μM R116010, 24 h) was “similar, although nonsignificant, trend”; in [6] (SH-SY5Y cells, 10 μM 13cisRA with 1 or 10 μM R116010, 24 h), “significant increase”. Also, the “Effect on ATRA levels after incubation with 13cisRA” value in series [6] (SH-EP or GIMEN cells, 10 μM 13cisRA with 1 or 10 μM R116010, 24 h) is “no observable effect”. The “Effect on intracellular ATRA concentrations after ATRA treatment” value is “no effect” in series [6] (SH-EP or GIMEN cells, 10 μM ATRA with 1 or 10 μM R116010, 24 h); “significant increases” in [6] (SH-SY5Y and NGP cells, 10 μM ATRA with 1 or 10 μM R116010, 24 h). The “Effect on 13cisRA concentrations after incubation with 13cisRA” value in series [6] (all four cell lines, 10 μM 13cisRA with 1 or 10 μM R116010, 24 h) is “no significant changes”. For the same compound, the “Effect on 13cisRA levels after incubation with ATRA” value in [6] (any of the cell lines, 10 μM ATRA with 1 or 10 μM R116010, 24 h) was “no effect”.

As for `CC1=C(/C=C/C(C)=C/C=C/C(C)=C/C(=O)O)C(C)(C)CCC1` [ATRA, all-trans-retinoic acid], the CYP26A1 induction result in [7] is “induced to various extents in SH-SY5Y, LAN6 and NGP cells”.

`CC1=C(/C=C/C(C)=C/C=C/C(C)=C\C(=O)O)C(C)(C)CCC1` [13cisRA, 13-cis-retinoic acid]: the “Peak drug levels in patients” value in [8] is greater than 5 µM. Further, the “Concentration effective against neuroblastoma cell lines in vitro” value in series [9] is 5 µM.
